Results taken from US10231939B2, “Hydroxytyrosol and oleuropein compositions for induction of DNA damage, cell death and LSD1 inhibition” (priority 2012, dated 2019).

Assays:
Test in all cases: Cell proliferation (Cell Titer-Blue Assay)
Assay type in all cases: cell-based, human
LCL cells = details: for EC50: Homo sapiens
Text: (§1) Human chronic myelogenous leukemia K562 cells (ATCC No. CCL-243), human large B-lymphocyte non-Hodgkin's lymphoma LCL cells, human leukemic monocyte lymphoma U937 cells (ATCC No. CRL-1593.2), human prostate adenocarcinoma PC3 (ATCC No. CRL-1435) and human gastric carcinoma SNU-16 cells (ATCC No. CRL-5974) were maintained in complete-Royal Park Memorial Institute (RPMI) 1640 medium supplemented with 20 mmol/L HEPES (pH 7.4; GIBCO-Invitrogen, Carlsbad, Calif., USA), 10% (v/v) fetal bovine serum (FBS), 2 mmol/L L-glutamine (GIBCO-Invitrogen), and 80 units gentamicin (GIBCO-Invitrogen). Cells were cultured in suspension in a humidified atmosphere of 5% (v/v) CO2 at 37° C. and were maintained in exponential growth phase. For maintenance, cells were passaged twice per week and seeded at ratios 1:10. Cell proliferation was determined using the Cell Titer-Blue Assay kit (Promega, Madison, Wis., USA). Cells were seeded at 10,000 cells per well in black flat bottom 96-well plates (Nalge Nunc, Penfield, N.Y., USA) and treated with serial doses of hydroxytyrosol (0-3200 μM) and oleuropein (0-12800 μM) for 24, 48 and 120 hours at 37° C., 5% (v/v) CO2. Following incubation with the test samples, Cell-Titer Blue reagent (20 μl per 100 μL) was added to each well and mixed gently for 5 sec prior to 4 hr incubation at 37° C. in a humidified atmosphere of 5% CO2. Fluorescence intensity (λex=550 nm and λem=615 nm) was determined using a Perkin Elmer Victor3 multilabel microplate counter (PerkinElmer, Waltham, Mass., USA). Data were expressed as % relative cell viability compared to untreated cells after correction of subtracting the media control fluorescence reading.

PC3 cells = details: for EC50: Homo sapiens, PC-3
Text: as §1

U937 cells = details: for EC50: Homo sapiens, U-937
Text: as §1

K562 cells = details: for EC50: Homo sapiens
Text: as §1

HL-60 cells = details: for EC50: Homo sapiens
Experimental: Human acute myeloid leukemic HL-60 cells (ATCC No. CCL-240) obtained from the ATCC were maintained in Dulbecco's modified Eagle's medium (DMEM, Gibco®, Invitrogen, Carlsbad, USA) supplemented with 20% fetal bovine serum (FBS, In Vitro Technologies, Victoria, Australia), antibody/antimycotic containing 100 U/mL Penicillin, 100 μg/mL Streptomycin, 0.25 μg/mL Amphotericin B (Invitrogen, Carlsbad, Calif., USA) and 1× GlutaMAX (Gibco, Invitrogen). Cells were cultured in suspension in a humidified atmosphere of 5% (v/v) CO2 at 37° C. and were maintained in exponential growth phase. For maintenance, cells were passaged twice per week and seeded at ratios 1:10. Cell proliferation was determined using the Cell Titer-Blue Assay kit (Promega, Madison, Wis., USA). Cells were seeded at 10,000 cells per well in black flat bottom 96-well plates (Nalge Nunc, Penfield, N.Y., USA) and treated with serial doses of hydroxytyrosol (0-3200 μM) and oleuropein (0-12800 μM) for 24, 48 and 120 hours at 37° C., 5% (v/v) CO2. Following incubation with the test samples, Cell-Titer Blue reagent (20 μl per 100 μL) was added to each well and mixed gently for 5 sec prior to 4 hr incubation at 37° C. in a humidified atmosphere of 5% CO2. Fluorescence intensity (λex=550 nm and λem=615 nm) was determined using a Perkin Elmer Victor3 multilabel microplate counter (PerkinElmer, Waltham, Mass., USA). Data were expressed as % relative cell viability compared to untreated cells after correction of subtracting the media control fluorescence reading.

R100 cells = details: for EC50: Homo sapiens
Experimental: as §1, with “Human acute T lymphoblast leukemic CEM-CCRF” for “Human chronic myelogenous leukemia K562”, “cells (ATTC NO. CCL-119), obtained from the ATCC” for “cells (ATCC No. CCL-243), human large B-lymphocyte non-Hodgkin's lymphoma LCL cells, human leukemic monocyte lymphoma U937 cells (ATCC No. CRL-1593.2), human prostate adenocarcinoma PC3 (ATCC No. CRL-1435) and human gastric carcinoma SNU-16 cells (ATCC No. CRL-5974)”, “in a Modified Eagle's Medium (α-MEM)” for “in complete-Royal Park Memorial Institute (RPMI) 1640 medium”, “with 2” for “with 20”, “(v/v) FBS,” for “(v/v) fetal bovine serum (FBS),”, “(GIBCO-Invitrogen). Similarly, CEM-CCRF—P-glycoprotein (PGP)—over expressing, vinblastine derivative—R100 cells, expressing multi-drug resistance (MDR) were grown in a-MEM supplemented with 2 mmol/L HEPES (pH 7.4), 10% (v/v) FBS, 2 mmol/L L-glutamine, 80 units gentamicin and 100 ng/ml vinblastine. R100 cells were cultured in a-MEM/FBS/gentamicin media without vinblastine for 7 days prior to use in experiments.” for “(GIBCO-Invitrogen).”

CEM-CCRF cells = details: for EC50: Homo sapiens
Experimental: as §1, with “Human acute T lymphoblast leukemic CEM-CCRF” for “Human chronic myelogenous leukemia K562”, “cells (ATTC NO. CCL-119), obtained from the ATCC” for “cells (ATCC No. CCL-243), human large B-lymphocyte non-Hodgkin's lymphoma LCL cells, human leukemic monocyte lymphoma U937 cells (ATCC No. CRL-1593.2), human prostate adenocarcinoma PC3 (ATCC No. CRL-1435) and human gastric carcinoma SNU-16 cells (ATCC No. CRL-5974)”, “in a Modified Eagle's Medium (α-MEM)” for “in complete-Royal Park Memorial Institute (RPMI) 1640 medium”, “with 2” for “with 20”, “(v/v) FBS,” for “(v/v) fetal bovine serum (FBS),”, “(GIBCO-Invitrogen). Similarly, CEM-CCRF—P-glycoprotein (PGP)—over expressing, vinblastine derivative—R100 cells, expressing multi-drug resistance (MDR) were grown in a-MEM supplemented with 2 mmol/L HEPES (pH 7.4), 10% (v/v) FBS, 2 mmol/L L-glutamine, 80 units gentamicin and 100 ng/ml vinblastine. R100 cells were cultured in a-MEM/FBS/gentamicin media without vinblastine for 7 days prior to use in experiments.” for “(GIBCO-Invitrogen).”

Row | SMILES | EC10 (concentration required to reduce the cell viability of the population to 10%) (LCL cells; 120 hr) [µM] | EC50 (LCL cells; 24 hr) [µM] | EC50 (LCL cells; 48 hr) [µM] | EC50 (LCL cells; 120 hr) [µM] | EC50 (PC3 cells; PC3, 24 hr) [µM] | EC50 (PC3 cells; PC3, 48 hr) [µM] | EC50 (PC3 cells; PC3, 120 hr) [µM] | EC10 (concentration required to reduce the cell viability of the population to 10%) (PC3 cells; PC3, 120 hr) [µM] | EC50 (U937 cells; U937, 24 hr) [µM] | EC50 (U937 cells; U937, 48 hr) [µM] | EC50 (U937 cells; U937, 120 hr) [µM] | EC10 (concentration required to reduce the cell viability of the population to 10%) (U937 cells; U937, 120 hr) [µM] | EC50 (K562 cells; K562, 24 hr) [µM] | EC50 (K562 cells; K562, 48 hr) [µM] | EC50 (K562 cells; K562, 120 hr) [µM] | EC10 (concentration required to reduce the cell viability of the population to 10%) (K562 cells; K562, 120 hr) [µM] | EC10 (concentration required to reduce the cell viability of the population to 10%) (HL-60 cells; HL-60, 120 hr) [µM] | EC50 (HL-60 cells; HL-60, 24 hr) [µM] | EC50 (HL-60 cells; HL-60, 48 hr) [µM] | EC50 (HL-60 cells; HL-60, 120 hr) [µM] | other results
1 | C/C=C1/[C@H](O[C@@H]2O[C@H](CO)[C@@H](O)[C@H](O)[C@H]2O)OC=C(C(=O)OC)[C@H]1CC(=O)OCCc1ccc(O)c(O)c1 [OL, oleuropein] | 1240 | 403 | 1100 | 640 | 2290 | 3800 | 2500 | 4600 | 730 | 2800 | 1250 | 2600 | 337 | 950 | 585 | 756 | 230 | 717 | 900 | 100 | EC50 (R100 cells; R100, 24 hr): 320 µM; EC50 (R100 cells; R100, 48 hr): 1000 µM; EC50 (R100 cells; R100, 120 hr): 250 µM; EC10 (concentration required to reduce the cell viability of the population to 10%) (R100 cells; R100, 120 hr): 530 µM; EC10 (concentration required to reduce the cell viability of the population to 10%) (CEM-CCRF cells; 120 hr): 700 µM; EC50 (CEM-CCRF cells; 24 hr): 437 µM; EC50 (CEM-CCRF cells; 48 hr): 1800 µM; EC50 (CEM-CCRF cells; 120 hr): 325 µM
2 | OCCc1ccc(O)c(O)c1 [HT, 4-(2-hydroxyethyl)-1,2-benzenediol] | 177 | 370 | 200 | 94 | 2120 | 320 | 215 | 630 | 563 | 500 | 250 | 370 | 150 | 150 | 91 | 176 | 29 | 632 | 100 | 13 | EC50 (R100 cells; R100, 24 hr): 190 µM; EC50 (R100 cells; R100, 48 hr): 100 µM; EC50 (R100 cells; R100, 120 hr): 40 µM; EC10 (concentration required to reduce the cell viability of the population to 10%) (R100 cells; R100, 120 hr): 86 µM; EC10 (concentration required to reduce the cell viability of the population to 10%) (CEM-CCRF cells; 120 hr): 80 µM; EC50 (CEM-CCRF cells; 24 hr): 121 µM; EC50 (CEM-CCRF cells; 48 hr): 100 µM; EC50 (CEM-CCRF cells; 120 hr): 42 µM
